Test results as given in US4337199A, “Antibiotic β-lactam compounds, production thereof, and their use as antimicrobial agent” (Sanraku-Ocean Co., Ltd., priority 1978, dated 1982).
In brackets after ≈: the same amount, converted by molar mass. Read-outs that look alike come from different tables or passages of the source.

Key:
Alcaligenes faecalis A 1 = assay: minimum inhibitory concentration, agar dilution assay; format: cell-based; conditions: A1, agar dilution, 35° C., 20 hours, read-out: minimum inhibitory concentration
Description: (§1) The antibiotic activities shown in Tables I-1 to I-8 above were determined in the following manner.
(§2) The minimum inhibitory concentrations of the compounds of formula (I-a-1) or (I-b-1) in Tables I-1 to I-7 and the known compounds in Table I-8 on the various microorganisms shown in the above tables were measured by an agar dilution assay method using a brain heart infusion agar medium "Difco" (a product of Difco Laboratories Inc.)
(§3) A sample of the test compound was dissolved in sterile distilled water and diluted to prepare a two-fold dilution series of the compound solution. In a petri plate of 9 cm diameter, 1 ml of the compound solution was added to 9 ml of molten sterile heart infusion agar medium (Difco Laboratories Inc.) at about 60° C. to prepare the compound-containing agar plate. An overnight culture of each test organism indicated in the above table which was prepared by stationary cultivation in Trypto-Soy broth (Eiken Chemi. Co., Ltd.) at 35° C. for 18 to 20 hours, was diluted with the Trypto-Soy broth to give approximately 10^8 cells/ml and the diluted inoculum was inoculated onto the compound-containing agar plates. After cultivating the plates at 35° C. for 20 hours, the growth of the organism was observed. The minimum concentration of the compound at which no growth of the microorganism was noted was determined, and defined as the minimum inhibitory concentration of the test compound.

[1] = tested on: Bacillus subtilis ATCC 6633; assay: as above; format: cell-based; conditions: read-out: minimum inhibitory concentration
Description: as §1, §2, §3

[2] = tested on: Citrobacter freundii GN 346; assay: as above; format: cell-based; conditions: GN346, agar dilution, 35° C., 20 hours, read-out: minimum inhibitory concentration
Description: as §1, §2, §3

[3] = tested on: Comamonas terrigena B-996; assay: as above; format: cell-based; conditions: read-out: minimum inhibitory concentration
Description: as §1, §2, §3

[4] = tested on: Enterobacter aerogenes E19; assay: as above; format: cell-based; conditions: Klebsiella aerogenes, E19; agar dilution, 35° C., 20 hours; read-out: minimum inhibitory concentration
Description: as §1, §2, §3

Enterobacter cloacae 45 = assay: as above; format: cell-based; conditions: Enterobacter cloacae, 45; agar dilution, 35° C., 20 hours; read-out: minimum inhibitory concentration
Description: as §1, §2, §3

Enterobacter sp. E8 = assay: as above; format: cell-based; conditions: SP.E8, agar dilution, 35° C., 20 hours, read-out: minimum inhibitory concentration
Description: as §1, §2, §3

Escherichia coli K-12 = assay: as above; format: cell-based; conditions: K12, agar dilution, 35° C., 20 hours, read-out: minimum inhibitory concentration
Description: as §1, §2, §3

Escherichia coli RGN 823 = assay: as above; format: cell-based; conditions: RGN823, agar dilution, 35° C., 20 hours, read-out: minimum inhibitory concentration
Description: as §1, §2, §3

[5] = tested on: Klebsiella pneumoniae K-13; assay: as above; format: cell-based; conditions: K13, agar dilution, 35° C., 20 hours, read-out: minimum inhibitory concentration
Description: as §1, §2, §3

Proteus mirabilis P6 = assay: as above; format: cell-based; conditions: P6, agar dilution, 35° C., 20 hours, read-out: minimum inhibitory concentration
Description: as §1, §2, §3

Proteus rettgeri P7 = assay: as above; format: cell-based; conditions: Providencia rettgeri, P7; agar dilution, 35° C., 20 hours; read-out: minimum inhibitory concentration
Description: as §1, §2, §3

Proteus sp. P22 = assay: as above; format: cell-based; conditions: agar dilution, 35° C., 20 hours; read-out: minimum inhibitory concentration
Description: as §1, §2, §3

Proteus vulgaris GN76 = assay: as above; format: cell-based; conditions: GN76, agar dilution, 35° C., 20 hours, read-out: minimum inhibitory concentration
Description: as §1, §2, §3

Providencia sp. P8 = assay: as above; format: cell-based; conditions: SP.P8, agar dilution, 35° C., 20 hours, read-out: minimum inhibitory concentration
Description: as §1, §2, §3

[6] = tested on: Pseudomonas aeruginosa IFO3445; assay: as above; format: cell-based; conditions: IFO3445, agar dilution, 35° C., 20 hours, read-out: minimum inhibitory concentration
Description: as §1, §2, §3

[7] = tested on: Pseudomonas aeruginosa NCTC10490; assay: as above; format: cell-based; conditions: NCTC10490, agar dilution, 35° C., 20 hours, read-out: minimum inhibitory concentration
Description: as §1, §2, §3

Sarcina lutea = assay: as above; format: cell-based; conditions: Micrococcus luteus, read-out: minimum inhibitory concentration
Description: as §1, §2, §3

Serratia marcescens S18 = assay: as above; format: cell-based; conditions: S18, agar dilution, 35° C., 20 hours, read-out: minimum inhibitory concentration
Description: as §1, §2, §3

Serratia marcescens T55 = assay: as above; format: cell-based; conditions: T55, agar dilution, 35° C., 20 hours, read-out: minimum inhibitory concentration
Description: as §1, §2, §3

[8] = tested on: Staphylococcus aureus FDA 209P; assay: as above; format: cell-based; conditions: FDA209P, read-out: minimum inhibitory concentration
Description: as §1, §2, §3

[9] = tested on: Staphylococcus aureus Russell; assay: as above; format: cell-based; conditions: agar dilution, 35° C., 20 hours, read-out: minimum inhibitory concentration
Description: as §1, §2, §3

[10] = tested on: Staphylococcus aureus Smith; assay: as above; format: cell-based; conditions: agar dilution, 35° C., 20 hours, read-out: minimum inhibitory concentration
Description: as §1, §2, §3

[11] = tested on: Staphylococcus epidermidis; assay: as above; format: cell-based; conditions: read-out: minimum inhibitory concentration
Description: as §1, §2, §3

[12] = tested on: Staphylococcus aureus Smith strain; assay: Infection treating test; format: in vivo, Staphylococcus aureus (in ddy male mice); conditions: sc, 2 h, mice infected intraperitoneally, 5×10^5 cells per mouse, subcutaneous, two hours after infection, read-out: CD50 (the source's name)
Description: The in vivo activities of the compounds of formula (I-d) were determined by using mice (five per group, ddy male mice, Shizuoka) which had been intraperitoneally infected with Staphylococcus aureus Smith strain in an amount of 5×10^5 cells per mouse. Two hours after the infection, an injection containing a sodium salt of each of the compounds of formula (I-d) was subcutaneously administered to the mice.

[13] = tested on: Alcaligenes faecalis B326; assay: minimum inhibitory concentration, agar dilution assay; format: cell-based; conditions: B326, 20 h, read-out: minimum inhibitory concentration
Description: as §1, §2, §3

[14] = tested on: Gram-positive and Gram-negative bacteria; assay: antibiotic activity (antimicrobial spectrum); format: cell-based; conditions: comparison in words
Description: as §2, §3

[15] = ATCC6633, agar dilution, 35° C., 20 hours
[16] = B996, agar dilution, 35° C., 20 hours
[17] = agar dilution, 35° C., 20 hours

| Structure (SMILES) | MIC (Alcaligenes faecalis A 1) | MIC [1, 15] | MIC [2] | MIC [3, 16] | MIC [4] | MIC (Enterobacter cloacae 45) | MIC (Enterobacter sp. E8) | MIC (Escherichia coli K-12) | MIC (Escherichia coli RGN 823) | MIC [5] | MIC (Proteus mirabilis P6) | MIC (Proteus rettgeri P7) | MIC (Proteus sp. P22) | MIC (Proteus vulgaris GN76) | MIC (Providencia sp. P8) | MIC [6] | MIC [7] | MIC (Sarcina lutea; [17]) | MIC (Serratia marcescens S18) | MIC (Serratia marcescens T55) | also measured |
| --- | --- | --- | --- | --- | --- | --- | --- | --- | --- | --- | --- | --- | --- | --- | --- | --- | --- | --- | --- | --- | --- |
| CC(O)C1C(=O)N2C(C(=O)O)=C(Sc3ccncc3)CC12 (stereo not drawn) [Example 60, 5,6-cis-3-(4-Pyridylthio)-6-(1-hydroxyethyl)-7-oxo-1-azabicyclo[3.2.0]hept-2-ene-2-carboxylic acid] | < 0.007 µg/mL | < 0.007 µg/mL | 6.25 µg/mL (≈ 20.4 µM) | < 0.007 µg/mL | 1.56 µg/mL (≈ 5.09 µM) | 6.25 µg/mL (≈ 20.4 µM) | 0.025 µg/mL (≈ 0.0816 µM) | 0.05 µg/mL (≈ 0.163 µM) | 6.25 µg/mL (≈ 20.4 µM) | 25 µg/mL (≈ 81.6 µM) | 0.39 µg/mL (≈ 1.27 µM) | 0.78 µg/mL (≈ 2.55 µM) | 50 µg/mL (≈ 163 µM) | 50 µg/mL (≈ 163 µM) | 0.2 µg/mL (≈ 0.653 µM) | 1.56 µg/mL (≈ 5.09 µM) | 1.56 µg/mL (≈ 5.09 µM) | < 0.007 µg/mL | 50 µg/mL (≈ 163 µM) | 25 µg/mL (≈ 81.6 µM) | MIC [8, 17]: < 0.007 µg/mL; MIC [9]: < 0.007 µg/mL; MIC [10]: < 0.007 µg/mL; MIC [11, 17]: < 0.007 µg/mL; ED50 [12]: 0.125 mg/kg |
| CC(O)C1C(=O)N2C(C(=O)O)=C(Sc3ncccn3)CC12 (stereo not drawn) [Example 64, 5,6-cis-3-(2-Pyrimidinylthio)-6-(1-hydroxyethyl)-7-oxo-1-azabicyclo[3.2.0]hept-2-ene-2-carboxylic acid] | 0.05 µg/mL (≈ 0.163 µM) | < 0.007 µg/mL | 6.25 µg/mL (≈ 20.3 µM) | < 0.007 µg/mL | 3.13 µg/mL (≈ 10.2 µM) | 12.5 µg/mL (≈ 40.7 µM) | 0.013 µg/mL (≈ 0.0423 µM) | 0.1 µg/mL (≈ 0.325 µM) | 1.56 µg/mL (≈ 5.08 µM) | 25 µg/mL (≈ 81.3 µM) | 0.78 µg/mL (≈ 2.54 µM) | 1.56 µg/mL (≈ 5.08 µM) | 25 µg/mL (≈ 81.3 µM) | 6.25 µg/mL (≈ 20.3 µM) | 0.2 µg/mL (≈ 0.651 µM) | 25 µg/mL (≈ 81.3 µM) | 25 µg/mL (≈ 81.3 µM) | < 0.007 µg/mL | 12.5 µg/mL (≈ 40.7 µM) | 12.5 µg/mL (≈ 40.7 µM) | MIC [8, 17]: < 0.007 µg/mL; MIC [9]: 0.013 µg/mL (≈ 0.0423 µM); MIC [10]: 0.025 µg/mL (≈ 0.0813 µM); MIC [11, 17]: 0.025 µg/mL (≈ 0.0813 µM); ED50 [12]: 0.25 mg/kg |
| CCCCSC1=C(C(=O)[O-])N2C(=O)C(CC)C2C1.[Na+] (stereo not drawn) [Example 68, Sodium 3-n-butylthio-6-ethyl-7-oxo-1-azabicyclo[3.2.0]hept-2-ene-2-carboxylate] |  |  |  |  |  |  |  |  |  |  |  |  |  |  |  |  |  |  |  |  | MIC [13]: 15 µg/mL; MIC ([1]; ATCC6633, 20 h): 3.75 µg/mL; MIC ([3]; B996, 20 h): 0.24 µg/mL; MIC (Sarcina lutea; 20 h): 1.88 µg/mL; MIC ([8]; 20 h): 0.24 µg/mL; MIC ([11]; 20 h): 0.12 µg/mL |
| CC(=O)NCCSC1=C(C(=O)O)N2C(=O)C(C(C)O)C2C1 (stereo not drawn) [PS-3, 3-(2-acetamidoethylthio)-6-(1-hydroxyethyl)-7-oxo-1-azabicyclo[3.2.0]hept-2-ene-2-carboxylic acid] |  |  |  |  |  |  |  |  |  |  |  |  |  |  |  |  |  |  |  |  | antibiotic activity (in words) [14]: better antibiotic activity than cephazolin (CEZ) |
